Results as given in patent publication US9567322B2, “Substituted tetrahydropyrans and method of use” (AbbVie S.á.r.l., priority 2014, dated 2017).

Key:
F508delCFTR = target: T1, F508delCFTR (Homo sapiens, UniProt P13569, DEL508-508); experiment: Cell Surface Expression-Horse Radish Peroxidase (CSE-HRP) assay; type: cell-based; settings: CFBE41o-F508delCFTR-HRP cells; for EC50: cell surface expression, luminescence readout, 18-24 hours at 33° C., highest concentration tested 20 μM, 8-point curve; for Maximum % activity: maximum at any tested concentration, normalized to on-plate positive control (3 μM) and DMSO
T1 construct: expressed in transfected cells; host or cells: CFBE41o- (CFBE41o-F508delCFTR-HRP), doxycycline-inducible
T1 sequence (P13569 with tags, fused parts or gaps DEL508-508): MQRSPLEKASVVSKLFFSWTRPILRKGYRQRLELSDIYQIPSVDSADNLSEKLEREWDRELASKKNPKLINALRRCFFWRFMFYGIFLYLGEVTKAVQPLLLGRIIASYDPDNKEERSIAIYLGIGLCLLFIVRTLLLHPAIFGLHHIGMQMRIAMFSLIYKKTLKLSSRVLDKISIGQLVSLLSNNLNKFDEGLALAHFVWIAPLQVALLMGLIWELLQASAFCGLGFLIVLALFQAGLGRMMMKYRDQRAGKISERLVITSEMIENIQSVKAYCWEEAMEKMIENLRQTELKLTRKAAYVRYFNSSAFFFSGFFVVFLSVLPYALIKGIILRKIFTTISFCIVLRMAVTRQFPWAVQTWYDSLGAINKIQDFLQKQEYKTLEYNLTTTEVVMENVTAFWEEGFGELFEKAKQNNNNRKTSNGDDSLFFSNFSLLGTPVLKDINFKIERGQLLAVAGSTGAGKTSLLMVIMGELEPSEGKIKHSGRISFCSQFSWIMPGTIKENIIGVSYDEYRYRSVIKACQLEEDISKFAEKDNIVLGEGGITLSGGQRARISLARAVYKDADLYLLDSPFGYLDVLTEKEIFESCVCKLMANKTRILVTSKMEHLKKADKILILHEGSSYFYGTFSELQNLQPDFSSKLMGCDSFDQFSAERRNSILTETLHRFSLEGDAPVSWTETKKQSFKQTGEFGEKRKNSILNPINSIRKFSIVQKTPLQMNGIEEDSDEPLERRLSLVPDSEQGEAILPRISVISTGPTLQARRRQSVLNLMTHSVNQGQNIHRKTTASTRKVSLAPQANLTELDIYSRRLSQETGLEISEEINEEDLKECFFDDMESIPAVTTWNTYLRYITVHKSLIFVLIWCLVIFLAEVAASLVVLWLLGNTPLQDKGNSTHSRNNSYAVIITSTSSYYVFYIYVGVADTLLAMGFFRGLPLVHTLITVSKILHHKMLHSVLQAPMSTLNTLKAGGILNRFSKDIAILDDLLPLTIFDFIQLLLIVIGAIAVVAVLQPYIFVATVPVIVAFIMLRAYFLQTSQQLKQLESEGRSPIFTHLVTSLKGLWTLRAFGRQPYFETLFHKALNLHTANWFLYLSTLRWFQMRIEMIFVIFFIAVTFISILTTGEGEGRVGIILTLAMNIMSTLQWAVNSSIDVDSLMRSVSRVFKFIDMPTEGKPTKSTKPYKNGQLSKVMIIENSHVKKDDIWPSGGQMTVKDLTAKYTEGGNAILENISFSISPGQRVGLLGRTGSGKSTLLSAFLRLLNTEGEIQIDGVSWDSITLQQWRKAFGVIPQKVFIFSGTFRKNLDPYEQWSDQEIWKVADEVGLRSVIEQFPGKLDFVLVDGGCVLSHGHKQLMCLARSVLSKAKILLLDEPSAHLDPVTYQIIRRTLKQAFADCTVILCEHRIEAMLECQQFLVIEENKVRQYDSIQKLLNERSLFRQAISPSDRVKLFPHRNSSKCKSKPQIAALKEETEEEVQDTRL
Procedure, shortened: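 CFBE41o- cells expressing F508delCFTR with HRP in the fourth extracellular loop were doxycycline-induced (0.5 μg/mL) for 72 h at 37 °C, then treated 18-24 h at 33 °C with an 8-point 3-fold series from 20 μM. Surface HRP luminescence (luminol) was normalized to DMSO and positive control; EC50 came from variable-slope sigmoidal fits of triplicate plates.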

F508del/F508del CFTR = target: T2, F508del/F508del CFTR (Homo sapiens, UniProt P13569, DEL508-508); experiment: Transepithelial Clamp Circuit (TECC-24) conductance assay on primary human bronchial epithelial cells; type: cell-based; settings: primary hBE cells from F508del/F508delCFTR patients; for EC50: equivalent short circuit current (Ieq), correctors 18-24 hours at 37° C., with control potentiator, 6 test concentrations; for Maximum % activity: relative to positive control (3 μM) coupled with control potentiator = 100%
T2 construct: cells isolated from CF patients with the homozygous mutation; endogenous in cells; host or cells: primary human bronchial epithelial (hBE) cells from F508del/F508del CF patients
T2 sequence (P13569 with tags, fused parts or gaps DEL508-508): as above
Source text: Transepithelial Clamp Circuit on Human Bronchial Epithelial Cells Conductance Assay:
A cell based assay using the primary human bronchial epithelial cells (hBE) was used as a secondary assay to test novel F508delCFTR correctors for their activity on primary hBE cells with F508del/F508del CFTR mutation. The assay used a TECC-24 (Transepithelial Clamp Circuit for 24 wells) instrument that measures the functionality of the mutated channel by measuring the equivalent short circuit current (Ieq) generated by the polarized epithelial cells. The instrument works by measuring the transepithelial potential difference (Vt) and transepithelial resistance (Rt) in an open circuit format, and the Ieq is calculated by using Ohms law (Ieq=Vt/Rt). The assay was run in a 24-well format and all 24-wells were measured at the same time point giving a higher throughput for this assay.
Primary human bronchial epithelial (hBE) cells from F508del/F508delCFTR patients were expanded from 1×10^6 to 250×10^6 cells (Neuberger T, Burton B, Clark H and VanGoor F; Cystic Fibrosis, Methods in Mole Biol 741; eds. Amaral M D and Kunzelmann K, 2011). For this purpose, cells isolated from CF patients with the homozygous mutation were seeded onto 24 well Corning (Cat #3378) filter plates that were coated with 3T3 conditioned media and grown at an air-liquid interface for 35 days using an Ultroser® G supplemented differentiation media. Apical surface mucus was removed 72 hours before the experiment using 3 mM dithiothreitol (DTT) in phosphate buffered saline (PBS). The apical surface was washed again 24 hours before the experiment using PBS. The cells were incubated with the desired dose response of the corrector compounds 18-24 hours at 37° C., 5% CO2. The corrector compounds are only added on the basolateral side of the epithelial cells.
On the day of measuring the corrector activity on the TECC, the cells were switched into a bicarbonate and serum free F-12 Coon's medium and allowed to equilibrate for 90 minutes in a CO2 free incubator. At the time of measurement, the apical and basolateral sides of the filter were bathed with the F-12 Coon's modification media (with 20 mM 4-(2-hydroxyethyl)-1-piperazineethanesulfonic acid (HEPES), pH 7.4 (using 1 M tris(hydroxymethyl)aminomethane (Tris)), and the measurements were made at 36.5° C. Transepithelial voltage (Vt) and transepithelial resistance (Rt) were measured using a 24 channel transepithelial current clamp (TECC-24). Current responses to the sequential addition of benzamil (apical 6 M addition; for inhibiting epithelial ENaC channel), forskolin (apical and basolateral 10 M addition; for activating the CFTR channel), control potentiator (N-(3-carbamoyl-5,5,7,7-tetramethyl-4,7-dihydro-5H-thieno[2,3-c]pyran-2-yl)-1H-pyrazole-5-carboxamide; apical and basolateral 1 M addition; for potentiating the CFTR channel) and bumetanide (basolateral 20 μM addition; for inhibiting the Na:2Cl:K co-transporter, an indirect measure of inhibiting the Cl-secretion driven by CFTR channel) were measured.
All plates contained negative controls (dimethyl sulfoxide, DMSO) which coupled with the control potentiator (N-(3-carbamoyl-5,5,7,7-tetramethyl-4,7-dihydro-5H-thieno[2,3-c]pyran-2-yl)-1H-pyrazole-5-carboxamide) sets the null response and positive controls (3 μM of 3-[(2R,4R)-4-({[1-(2,2-difluoro-1,3-benzodioxol-5-yl)cyclopropyl]carbonyl}amino)-7-methoxy-3,4-dihydro-2H-chromen-2-yl]benzoic acid) coupled with the control potentiator sets the 100% response to measure the correction of the mutated CFTR channel. The maximum percent activity is reported relative to the positive control value.
The % activity measured at each of the 6 test concentrations of the test compound was normalized to the on-plate positive control using the following formula: % activity=[(test compound response−DMSO response)/(positive control response−DMSO response)]*100 […]

Cc1cc(C(=O)O)cc([C@H]2C[C@@H](NC(=O)C3(c4ccc5c(c4)OC(F)(F)O5)CC3)C[C@@H](c3ccccc3)O2)c1 (racemic) [Example 73, rac-3-[(2R,4S,6S)-4-({[1-(2,2-difluoro-1,3-benzodioxol-5-yl)cyclopropyl]carbonyl}amino)-6-phenyltetrahydro-2H-pyran-2-yl]-5-methylbenzoic acid]
EC50 (F508delCFTR): 410 nM
Maximum % activity (F508delCFTR): 90%
EC50 (F508del/F508del CFTR): 330 nM
Maximum % activity (F508del/F508del CFTR): 91%

O=C(O)c1ccc([C@H]2C[C@@H](NC(=O)C3(c4ccc5c(c4)OC(F)(F)O5)CC3)CCO2)cc1 (racemic) [Example 14, rac-4-[(2R,4S)-4-({[1-(2,2-difluoro-1,3-benzodioxol-5-yl)cyclopropyl]carbonyl}amino)tetrahydro-2H-pyran-2-yl]benzoic acid]
EC50 (F508delCFTR): 2860 nM
Maximum % activity (F508delCFTR): 113%
EC50 (F508del/F508del CFTR): 1340 nM
Maximum % activity (F508del/F508del CFTR): 73%

O=C(O)c1cccc([C@H]2C[C@@H](NC(=O)C3(c4ccc5c(c4)OC(F)(F)O5)CC3)C[C@@H](c3ccccc3)O2)c1 (racemic) [Example 24, rac-3-[(2R,4S,6S)-4-({[1-(2,2-difluoro-1,3-benzodioxol-5-yl)cyclopropyl]carbonyl}amino)-6-phenyltetrahydro-2H-pyran-2-yl]benzoic acid]
EC50 (F508delCFTR): 500 nM
Maximum % activity (F508delCFTR): 109%
EC50 (F508del/F508del CFTR): 340 nM
Maximum % activity (F508del/F508del CFTR): 76%

O=C(O)c1cccc([C@H]2C[C@@H](NC(=O)C3(c4ccc5c(c4)OC(F)(F)O5)CC3)C[C@@H](c3ccccc3)O2)c1 [Example 27, 3-[(2R,4S,6S)-4-({[1-(2,2-difluoro-1,3-benzodioxol-5-yl)cyclopropyl]carbonyl}amino)-6-phenyltetrahydro-2H-pyran-2-yl]benzoic acid]
EC50 (F508delCFTR): 280 nM
Maximum % activity (F508delCFTR): 109%
EC50 (F508del/F508del CFTR): 100 nM
Maximum % activity (F508del/F508del CFTR): 94%

O=C(O)c1ccc([C@H]2C[C@@H](NC(=O)C3(c4ccc5c(c4)OC(F)(F)O5)CC3)C[C@@H](c3ccccc3)O2)cc1 (single isomer, unassigned) [Example 53]
EC50 (F508delCFTR): 300 nM
Maximum % activity (F508delCFTR): 81%
EC50 (F508del/F508del CFTR): 260 nM
Maximum % activity (F508del/F508del CFTR): 73%

Cc1cc(C(=O)O)ccc1[C@H]1C[C@H](NC(=O)C2(c3ccc4c(c3)OC(F)(F)O4)CC2)C[C@@H](c2ccccc2)O1 (racemic) [Example 65, rac-4-[(2R,4R,6S)-4-({[1-(2,2-difluoro-1,3-benzodioxol-5-yl)cyclopropyl]carbonyl}amino)-6-phenyltetrahydro-2H-pyran-2-yl]-3-methylbenzoic acid]
Maximum % activity (F508delCFTR; 3 µM): 100%
Maximum % activity (F508del/F508del CFTR): 84%

O=C(O)c1cccc([C@H]2C[C@@H](NC(=O)C3(c4ccc5c(c4)OC(F)(F)O5)CC3)CCO2)c1 [Example 19, 3-[(2R,4S)-4-({[1-(2,2-difluoro-1,3-benzodioxol-5-yl)cyclopropyl]carbonyl}amino)tetrahydro-2H-pyran-2-yl]benzoic acid]
EC50 (F508delCFTR): 2230 nM
Maximum % activity (F508delCFTR): 100%
EC50 (F508del/F508del CFTR): 1030 nM
Maximum % activity (F508del/F508del CFTR): 87%

Cc1cc(C(=O)O)ccc1[C@H]1C[C@@H](NC(=O)C2(c3ccc4c(c3)OC(F)(F)O4)CC2)CCO1 (stereo in doubt) [Example 43, rel-4-[(2R,4S)-4-({[1-(2,2-difluoro-1,3-benzodioxol-5-yl)cyclopropyl]carbonyl}amino)tetrahydro-2H-pyran-2-yl]-3-methylbenzoic acid]
EC50 (F508delCFTR): 320 nM
Maximum % activity (F508delCFTR): 119%

O=C(O)c1cccc([C@H]2C[C@@H](NC(=O)C3(c4ccc5c(c4)OC(F)(F)O5)CC3)CCO2)c1 (racemic) [Example 2, rac-3-[(2R,4S)-4-({[1-(2,2-difluoro-1,3-benzodioxol-5-yl)cyclopropyl]carbonyl}amino)tetrahydro-2H-pyran-2-yl]benzoic acid]
EC50 (F508delCFTR): 850 nM
Maximum % activity (F508delCFTR): 71%

COc1ccc([C@H]2C[C@@H](NC(=O)C3(c4ccc5c(c4)OC(F)(F)O5)CC3)C[C@@H](c3ccc(C(=O)O)cc3)O2)cc1 (single isomer, unassigned) [Example 67]
EC50 (F508delCFTR): 2410 nM
Maximum % activity (F508delCFTR): 54%

COC(=O)c1ccccc1[C@H]1C[C@@H](NC(=O)C2(c3ccc4c(c3)OC(F)(F)O4)CC2)CCO1 (racemic) [Example 11, methyl rac-2-[(2R,4S)-4-({[1-(2,2-difluoro-1,3-benzodioxol-5-yl)cyclopropyl]carbonyl}amino)tetrahydro-2H-pyran-2-yl]benzoate]
EC50 (F508delCFTR): 900 nM
Maximum % activity (F508delCFTR): 116%

CC(=O)c1cccc([C@H]2C[C@@H](NC(=O)C3(c4ccc5c(c4)OC(F)(F)O5)CC3)CCO2)c1 (racemic) [Example 8, rac-N-[(2R,4S)-2-(3-acetylphenyl)tetrahydro-2H-pyran-4-yl]-1-(2,2-difluoro-1,3-benzodioxol-5-yl)cyclopropanecarboxamide]
EC50 (F508delCFTR): 1390 nM
Maximum % activity (F508delCFTR): 57%

O=C(O)c1ccc([C@H]2C[C@H](NC(=O)C3(c4ccc5c(c4)OC(F)(F)O5)CC3)C[C@@H](c3ccccc3)O2)c(F)c1 (racemic) [Example 61, rac-4-[(2R,4R,6S)-4-({[1-(2,2-difluoro-1,3-benzodioxol-5-yl)cyclopropyl]carbonyl}amino)-6-phenyltetrahydro-2H-pyran-2-yl]-3-fluorobenzoic acid]
EC50 (F508delCFTR): 2540 nM
Maximum % activity (F508delCFTR): 82%

COC(=O)c1cccc([C@@H]2C[C@H](NC(=O)C3(c4ccc5c(c4)OC(F)(F)O5)CC3)CCO2)c1 [Example 16, methyl 3-[(2S,4R)-4-({[1-(2,2-difluoro-1,3-benzodioxol-5-yl)cyclopropyl]carbonyl}amino)tetrahydro-2H-pyran-2-yl]benzoate]
EC50 (F508delCFTR): 2620 nM
Maximum % activity (F508delCFTR): 44%

CC1(C)C[C@H](NC(=O)C2(c3ccc4c(c3)OC(F)(F)O4)CC2)C[C@H](c2ccc(C(=O)O)cc2)O1 (racemic) [Example 35, rac-4-[(2R,4R)-4-({[1-(2,2-difluoro-1,3-benzodioxol-5-yl)cyclopropyl]carbonyl}amino)-6,6-dimethyltetrahydro-2H-pyran-2-yl]benzoic acid]
EC50 (F508delCFTR): 2870 nM
Maximum % activity (F508delCFTR): 89%

O=C(N[C@H]1CCO[C@@H](c2ccccc2)C1)C1(c2ccc3c(c2)OC(F)(F)O3)CC1 (racemic) [Example 1, rac-1-(2,2-difluoro-1,3-benzodioxol-5-yl)-N-[(2R,4S)-2-phenyltetrahydro-2H-pyran-4-yl]cyclopropanecarboxamide]
EC50 (F508delCFTR): 1700 nM
Maximum % activity (F508delCFTR): 62%
